Data as given in ChEMBL document CHEMBL4680194, “Synthesis and biological evaluation of 1,2,4-triazole derivatives as potential neuroprotectant against ischemic brain injury” (Eur J Med Chem, 2020).
Calls of active or inactive are those of the source. The rule behind the calls is not given here.

Experiments:
PC-12 [1] = assay: Cytoprotective activity against SNP-induced cell death in rat PC-12 cells assessed as increase in cell viability at 10 uM incubated for 1 hr followed by SNP stimulation and measured after 24 hrs by MTT assay; type: functional; settings: time 25.0 hrs
PC-12 [2] = assay: Cytoprotective activity against H2O2-induced cell death in rat PC-12 cells assessed as increase in cell viability at 10 uM incubated for 1 hr followed by H2O2 stimulation and measured after 5 hrs by MTT assay; type: functional; settings: time 6.0 hrs
[3] = Metal chelating activity of the compound assessed as Fe2+-compound complex formation incubated for 10 mins in presence of ferrozine by UV-visible spectrophotometry
PC-12 [4] = assay: Cytoprotective activity against SNP-induced cell death in rat PC-12 cells assessed as increase in cell viability incubated for 1 hr followed by SNP stimulation and measured after 24 hrs by LDH assay; type: functional, cell-based; settings: time 25.0 hrs
PC-12 [5] = assay: Cytoprotective activity against H2O2-induced cell death in rat PC-12 cells assessed as increase in cell viability incubated for 1 hr followed by H2O2 stimulation and measured after 5 hrs by LDH assay; type: functional, cell-based; settings: time 6.0 hrs

With `NS(=O)(=O)c1ccc(-n2nc(-c3ccc(C(F)(F)F)cc3)nc2-c2ccccc2O)cc1` the Activity (PC-12 [1]) was “inactive”, the Activity (PC-12 [2]) was “inactive” and the IC50 [3] was “Not Active”.

In the case of `Cc1ccc(-c2nc(-c3ccccc3O)n(-c3ccc(S(N)(=O)=O)cc3)n2)c(O)c1`, the Activity (PC-12 [4]) is reported as “Dose-dependent effect”, the Activity (PC-12 [5]) is reported as “Dose-dependent effect” and the Activity (PC-12 [1]) is reported as “Active”. The Activity (PC-12 [2]) was “Active” and the IC50 ([3]; read-out: IC50) was 35.1 µM.

In the case of `NS(=O)(=O)c1ccc(-n2nc(-c3ccc(F)cc3O)nc2-c2ccccc2O)cc1`, the Activity (PC-12 [4]) is reported as “Dose-dependent effect”, the Activity (PC-12 [5]) is reported as “Dose-dependent effect” and the Activity (PC-12 [1]) is reported as “Active”. The Activity (PC-12 [2]) was “Active” and the IC50 ([3]; read-out: IC50) was 46.2 µM.

For `NS(=O)(=O)c1ccc(-n2nc(-c3ccc(C(F)(F)F)cc3O)nc2-c2ccc(C(F)(F)F)cc2O)cc1`, the Activity (PC-12 [1]) was “inactive” and the Activity (PC-12 [2]) was “inactive”.

In the case of `NS(=O)(=O)c1ccc(-n2nc(-c3ccccc3O)nc2-c2ccccc2O)cc1`, the Activity (PC-12 [4]) is reported as “Dose-dependent effect”, the Activity (PC-12 [5]) is reported as “Dose-dependent effect” and the Activity (PC-12 [1]) is reported as “Active”. The Activity (PC-12 [2]) was “Active” and the IC50 ([3]; read-out: IC50) was 42.9 µM.

With `NS(=O)(=O)c1ccc(-n2nc(-c3ccc(F)cc3)nc2-c2ccccc2O)cc1` the Activity (PC-12 [1]) was “inactive”, the Activity (PC-12 [2]) was “inactive” and the IC50 [3] was “Not Active”.

With `Cc1ccc(-c2nc(-c3ccc(C)cc3O)n(-c3ccc(S(N)(=O)=O)cc3)n2)c(O)c1` the Activity (PC-12 [1]) was “inactive” and the Activity (PC-12 [2]) was “inactive”.

In the case of `NS(=O)(=O)c1ccc(-n2nc(-c3ccc([N+](=O)[O-])cc3)nc2-c2ccccc2O)cc1`, the Activity (PC-12 [1]) is reported as “inactive”, the Activity (PC-12 [2]) is reported as “inactive” and the IC50 [3] is reported as “Not Active”.

With `NS(=O)(=O)c1ccc(-n2nc(-c3ccc(Cl)cc3O)nc2-c2ccccc2O)cc1` the Activity (PC-12 [4]) was “Dose-dependent effect”, the Activity (PC-12 [5]) was “Dose-dependent effect” and the Activity (PC-12 [1]) was “Active”. The Activity (PC-12 [2]) was “Active” and the IC50 ([3]; read-out: IC50) was 36 µM.

With `NS(=O)(=O)c1ccc(-n2nc(-c3ccc([N+](=O)[O-])cc3O)nc2-c2ccccc2O)cc1` the Activity (PC-12 [4]) was “Dose-dependent effect”, the Activity (PC-12 [5]) was “Dose-dependent effect” and the Activity (PC-12 [1]) was “Active”. For the same compound, the Activity (PC-12 [2]) was “Active” and the IC50 ([3]; read-out: IC50) was 27.5 µM.

With `NS(=O)(=O)c1ccc(-n2nc(-c3ccc(C(F)(F)F)cc3O)nc2-c2ccccc2O)cc1` the Activity (PC-12 [4]) was “Dose-dependent effect”, the Activity (PC-12 [5]) was “Dose-dependent effect” and the Activity (PC-12 [1]) was “Active”. The Activity (PC-12 [2]) was “Active” and the IC50 ([3]; read-out: IC50) was 22.6 µM.

For `NS(=O)(=O)c1ccc(-n2nc(-c3ccccc3)nc2-c2ccccc2O)cc1`, the Activity (PC-12 [1]) was “inactive”, the Activity (PC-12 [2]) was “inactive” and the IC50 [3] was “Not Active”.

For `NS(=O)(=O)c1ccc(-n2nc(-c3ccc(F)cc3O)nc2-c2ccc(F)cc2O)cc1`, the Activity (PC-12 [1]) was “inactive” and the Activity (PC-12 [2]) was “inactive”.
